The text below walks through data of patent US20080287374A1, “BREAST CANCER-RESISTANT PROTEIN INHIBITOR” (KABUSHIKI KAISHA YAKULT HONSHA, priority 2003, published 2008).

One assay deals with P388/BCRP cell line. Nature of the assay: Effect of flavonoid in overcoming anticancer drug resistance in vivo (survival of tumor-implanted mice). Further details: species or system mouse. To be noted: compound 100 mg/kg/day + CPT-11 20 mg/kg/day, intraperitoneally once a day, days 1 to 10; CDF1 mice. As to the method:
Groups of six-week-old female CDF1 mice, each group consisting of 5 mice, were employed. The P388 cell line or the P388/BCRP cell line (1×10^6 cells) was implanted into the peritoneal cavity of each of the mice. […] Merely the solvent was administered to mice in the control group. In order to evaluate the antitumor effect of the flavonoid, survival rate T/C (%) was calculated from the survival days of the tumor-implanted mice by use of the following formula.
Survival rate T/C (%)=(the mean survival days of mice in the treated flavonoid group)÷(the mean survival days of mice in the control group)×100

A further assay concerns MES-SA/Dx5 cell line. Nature of the assay: Effect of flavonoid on multidrug (paclitaxel) resistance of MES-SA/Dx5 cell line. Format: cell-based, human. To be noted: concentration of flavonoid for 50% reduction of relative resistance value to paclitaxel, MES-SA/Dx5 (P-glycoprotein overexpression), 48 hours; for EC50: Homo sapiens, read-out: Resistance overcoming effect EC50. As to the method: Human uterine cancer MES-SA cell line or MES-SA/Dx5 cell line which had acquired multidrug resistance through overexpression of P-glycoprotein (Cancer Res. 45, 4091-4096 (1985)) was suspended in 10% FBS/DMEM, and the resultant suspension was inoculated into a 96-well microplate, followed by culturing at 5% CO2 and 37° C. overnight (3×10^3 cells/50 μL/well). Thereafter, a solution of a flavonoid and paclitaxel in 10% FBS/DMEM (25 μL) was added to each of the wells, followed by culturing at 5% CO2 and 37° C. for 48 hours. After completion of culturing, the number of viable cells was counted by use of TetraColor ONE according to the attached instruction manual.

Assay [1] deals with A549/SN-38-4 cell line. The experiment in a line: Effect of flavonoid in overcoming anticancer drug (SN-38) resistance of A549/SN-38 cell line. Format: cell-based, human. As to conditions: concentration of flavonoid for 50% reduction of relative resistance value to SN-38, A549/SN-38-4, 48 hours; for EC50: Homo sapiens. The protocol: The A549 cell line or the A549/SN-38-4 cell line was suspended in 10% FBS/Ham's F-12, and the resultant suspension was inoculated into a 96-well microplate, followed by culturing at 5% CO2 and 37° C. overnight (2×10^3 cells/50 μL/well). Thereafter, a solution of a flavonoid and SN-38 in 10% FBS/Ham's F-12 (25 μL) was added to each of the wells, followed by culturing at 5% CO2 and 37° C. for 48 hours. After completion of culturing, the number of viable cells was counted by use of TetraColor ONE according to the attached instruction manual.

The test system of assay [2] is A549/SN-38-4 cell line. Nature of the assay: Amount of anticancer drug accumulated in A549/SN-38 cell line. The format is cell-based, human. As to conditions: both the A549 cell line and the A549/SN-38-4 cell line; SN-38 300 ng/mL, 60 minutes. The protocol:
The A549 cell line or the A549/SN-38-4 cell line (4×10^6 cells/mL) was suspended in 10% FBS/RPMI1640 (1 mL), and an SN-38 DMSO solution (1 μL, final concentration: 300 ng/mL) was added to the resultant suspension, followed by incubation at 37° C. for 60 minutes. Thereafter, centrifugation was performed (2° C., 1,400×g, 1 min), and the resultant supernatant was removed. Ice-cooled PBS was added to the thus-precipitated cells, and the cells were resuspended therein, followed by centrifugation (2° C., 1,400×g, 1 min) for washing of the cells. This washing procedure was performed again, followed by addition of PBS (375 μL) and sonication of the cells. To the resultant destructed cells, methanol (375 μL) and 10% zinc sulfate solution (15 μL) were added, and the resultant mixture was stirred, followed by centrifugation (2° C., 12,500×g, 5 min) and collection of the supernatant. The thus-collected supernatant was dispensed in a white 96-well microplate for fluorescence intensity measurement (200 μL/well), and then the amounts of SN-38 and an SN-38-glucuronide contained in the supernatant were measured by use of a microplate fluorometer [SPECTRA max GEMINI XS (trade name), product of Molecular Devices] […]

The subject of assay [3] is A549/SN-38-4 cell line. The experiment in a line: Anticancer drug sensitivity test, A549/SN-38-4. Format: cell-based, human. As to conditions: stated for the A549/SN-38 cell lines; FIG. 1 shows A549/SN-38-4. The protocol:
Human non-small cell lung cancer A549 cell line was subcultured at 5% CO2 and 37° C. by use of a Ham's F-12 medium containing 10% FBS, 100 U/mL of penicillin, and 100 μg/mL of streptomycin (10% FBS/Ham's F-12). SN-38-resistant A549 cell lines were selected by subculturing the A549 cell line in a medium for two months while the concentration of SN-38 contained in the medium was increased in a stepwise manner (4 to 10 ng/mL). Subsequently, the resultant SN-38-resistant A549 cell lines were subjected to cloning by means of limiting dilution, to thereby establish six cloned SN-38-resistant A549 cell lines (A549/SN-38-1 to 6).
Thereafter, a solution of an anticancer drug in 10% FBS/Ham's F-12 (50 μL) was added to each of the wells, followed by culturing at 5% CO2 and 37° C. for 48 hours. After completion of culturing, the number of viable cells was counted by use of a viable cell counting reagent [TetraColor ONE (trade name), product of Seikagaku Corporation] according to the attached instruction manual. […] “Relative resistance value” is obtained by dividing the IC50 for an A549/SN-38 cell line by the IC50 for the A549 cell line. The greater the relative resistance value, the higher the level of acquired resistance.

In brackets after ≈: the same amount, converted by molar mass.

On to `COc1ccc2c(=O)cc(-c3ccc(OC)c(OC)c3)oc2c1` [Compound 1-14, 3′,4′,7-Trimethoxyflavone], for which, in the assay on P388/BCRP cell line, the “Survival days Mean ± S.D.” value is 18.4 ± 4.5 days and the “Survival rate T/C” value stood at 153%. The EC50 (in general, the concentration needed to bring the measured effect to its halfway point) with MES-SA/Dx5 cell line is over 1 µg/mL. Also, the EC50 in the assay on A549/SN-38-4 cell line [1] was found to be 0.0078 µg/mL (≈ 0.025 µM).
The corresponding values for `COc1cc2oc(-c3ccccc3)cc(=O)c2cc1OC` [Compound 1-15, 6,7-Dimethoxyflavone] are 18.2 ± 3.9 days, 152%, over 1 µg/mL and 0.16 µg/mL (≈ 0.567 µM).
For `COc1ccc(/C=C/C(=O)c2ccc(O)cc2O)cc1OC` [Compound 3-5, 2′,4′-Dihydroxy-3,4-dimethoxychalcone], in that order: 18.4 ± 0.5 days, 153%, over 1 µg/mL and 0.04 µg/mL (≈ 0.133 µM).
As for `COc1cc(/C=C/C(=O)c2cc(Cl)cc(Br)c2O)cc(OC)c1OC` [Compound 3-10, 3′-Bromo-5′-Chloro-2′-hydroxy-3,4,5-trimethoxychalcone], the EC50 in the assay with MES-SA/Dx5 cell line is over 1 µg/mL; in the assay on A549/SN-38-4 cell line [1], 0.97 µg/mL (≈ 2.27 µM).
For `COc1ccc(-c2coc3cc(O)cc(O)c3c2=O)cc1` [Compound 4-1, 5,7-Dihydroxy-4′-methoxyisoflavone], in that order: over 1 µg/mL and 0.33 µg/mL (≈ 1.16 µM).
In the case of `COc1ccc(-c2coc3cc(OC4O[C@H](CO)[C@@H](O)[C@H](O)[C@H]4O)cc(O)c3c2=O)cc1` (stereo partly drawn) [Compound 4-2, 5-Hydroxy-4′-methoxyisoflavone-7-glucoside], the entries for the “Resistance overcoming effect EC50” value with MES-SA/Dx5 cell line and in the assay with A549/SN-38-4 cell line [1] were over 1.0 µg/mL and 0.84 µg/mL, respectively.
In the case of `CCc1c2c(nc3ccc(O[C@@H]4O[C@H](C(=O)O)[C@@H](O)[C@H](O)[C@H]4O)cc13)-c1cc3c(c(=O)n1C2)COC(=O)[C@]3(O)CC` [SN-38-glucuronide], the “SN-38-glucuronide detected in cells” value in the assay with A549/SN-38-4 cell line [2] is “virtually no SN-38-glucuronide was detected”.
For `CCc1c2c(nc3ccc(O)cc13)-c1cc3c(c(=O)n1C2)COC(=O)[C@]3(O)CC` [SN-38], in the assay with A549/SN-38-4 cell line [3], the “Resistance of the A549/SN-38 cell lines to the drug (in words)” value is listed as “particularly strong resistance”.
Same read-out and setting: for `O=C1c2c(O)ccc(O)c2C(=O)c2c(NCCNCCO)ccc(NCCNCCO)c21` [mitoxantrone] the value was “particularly strong resistance”.
